From patent US20250134897A1, “PREPARATION OF IS[…] KETO[…] METHODS OF HYPERPO[…] SIGNAL AMP[…] […] (SABRE)” (The United States of America,as represented by the …, priority 2022, published 2025)

Columns and labels:
[1] = SABRE-SHEATH 13C hyperpolarization, single-scan 13C NMR; type: physicochemical; settings: 10 mM substrate, 45 mM DMSO, 7.8 mM Ir-IMes catalyst in methanol-d4; 55 s p-H2 bubbling at BT=−0.2 μT; ~50% p-H2; acquired after transfer to 1 T
From the text: Ultra-high-purity hydrogen gas (Airgas) was fed into a Para-Hydrogen (pH2) flow cryostat (Xeus technology LTD) and enriched to about 50% parahydrogen in the presence of a spin-exchange catalyst (Fe2O3) at liquid nitrogen temperature (77 K). The pH2 flow was directed via PTFE tubing to a mass flow controller (MFC, Sierra Instruments SmartTrak 100 series) set at 90 ssc/m and directed to a conventional 5 mm NMR tube (Norell) to allow bubbling through the sample. The entire pH2 line was pressurized to 96 psi.
At least once a day, the shield was degaussed using internal coils driven by a Variac. The solenoid has 41 mm diameter (40 mm core, 20 cm long windings with 220 turns AWG20 (0.9 mm) Cu wire and with 220Ω resistor in series. The solenoid coil was driven by commercial 1.5V batteries with a variable-resistance decade box in series to provide finer control of the internal magnetic field inside the shield. Typical values of the field within the shield were between […], with SABRE SHEATH experiments typically between 0.5 μT and 0.8 μT in the sample region. The values were monitored between SABRE experiments using a Lakeshore Cryotronics Gaussmeter (Model No. 475 DSP with HMMA-2512-VR Hall Probe.
NMR experiments were performed using a 1 T Magritek Spinsolve benchtop NMR spectrometer. […]

[2] = 13C-1 spin-lattice relaxation time (T1) at 3 T MRI system; type: physicochemical; settings: 3 T MRsolution MRI system, solutions of DPBS with EDTA

Compound | polarization P(13C) [1] | T1 after flip angle correction (spin-lattice relaxation time) [2] | apparent T1 (spin-lattice relaxation time) ([2]; without flip angle correction)
O=C(CC[12C](=O)[O-])[13C](=O)[O-].[Na+].[Na+] [sodium [1-^13C] Ketoglutarate, sodium 2-Oxopentanedioate-5-^12C-1-^13C] | ~0.24% |  | 
O=C(O)CCC(=O)C(=O)O [2-Oxopentanedioic-5-^12C-1-^13C acid] |  | 63.0 ± 0.835 s | 32.1 ± 0.824 s
